molecular target: T1, NMDA receptors of rat cortical neurons (Rattus norvegicus, UniProt Q00960); test: NMDA antagonist potency by intracellular calcium measurement (plate reader fluorimeter) in rat cortical cell culture; format: cell-based; settings: not given
T1 construct: primary neocortical cell cultures derived from 17 day old Charles River rat embryos; endogenous in cells; host or cells: primary rat embryonic (E17) neocortical cell culture, 3-7 days in vitro
Description: Assessment of NMDA Antagonist Potency In Vitro by Measurement of Intracellular Calcium Concentration with a Plate Reader Fluorimeter in Rat Cortical Cell Culture
The intracellular calcium measurements were carried out on primary neocortical cell cultures derived from 17 day old Charles River rat embryos (for the details on the preparation of neocortical cell culture see Johnson, M. I.; Bunge, R. P. (1992): Primary cell cultures of peripheral and central neurons and glia. In: Protocols for Neural Cell Culture, eds: Fedoroff, S.; Richardson A., The Humana Press Inc., 51-75.) After isolation the cells were plated onto standard 96-well microplates and the cultures were maintained in an atmosphere of 95% air-5% CO2 at 37° C. until the calcium measurements.
The cultures were used for the intracellular calcium measurements after 3-7 days in vitro. Before the measurement the cells were loaded with a fluorescent Ca^2+-sensitive dye, Fluo-4/AM (2 μM). To stop the loading the cells were washed twice with the solution used for the measurement (140 mM NaCl, 5 mM KCl, 2 mM CaCl2, 5 mM HEPES, 5 mM HEPES-Na, 20 mM glucose, 10 μM glycine, pH=7.4). After washing the test compounds were added to the cells in the above solution (90 μl/well). Intracellular calcium measurements were carried out with a plate reader fluorimeter: elevation of Fluo-4-fluorescence and so, intracellular calcium was induced by application of 40 μM NMDA. Inhibitory potency of the test compounds was assessed by measuring the reduction in the calcium elevation in the presence of different concentrations of the compounds.
(§1) Dose-response curves and IC50 values were calculated by using data derived from at least three independent experiments. Inhibitory potency of a compound at a single concentration point was expressed as percent inhibition of the NMDA response. Sigmoidal concentration-inhibition curves were fit to the data and IC50 values were determined as the concentration that produces half of the maximal inhibition caused by the compound.

T1 sequence (Q00960 27-1482, other chains not shown): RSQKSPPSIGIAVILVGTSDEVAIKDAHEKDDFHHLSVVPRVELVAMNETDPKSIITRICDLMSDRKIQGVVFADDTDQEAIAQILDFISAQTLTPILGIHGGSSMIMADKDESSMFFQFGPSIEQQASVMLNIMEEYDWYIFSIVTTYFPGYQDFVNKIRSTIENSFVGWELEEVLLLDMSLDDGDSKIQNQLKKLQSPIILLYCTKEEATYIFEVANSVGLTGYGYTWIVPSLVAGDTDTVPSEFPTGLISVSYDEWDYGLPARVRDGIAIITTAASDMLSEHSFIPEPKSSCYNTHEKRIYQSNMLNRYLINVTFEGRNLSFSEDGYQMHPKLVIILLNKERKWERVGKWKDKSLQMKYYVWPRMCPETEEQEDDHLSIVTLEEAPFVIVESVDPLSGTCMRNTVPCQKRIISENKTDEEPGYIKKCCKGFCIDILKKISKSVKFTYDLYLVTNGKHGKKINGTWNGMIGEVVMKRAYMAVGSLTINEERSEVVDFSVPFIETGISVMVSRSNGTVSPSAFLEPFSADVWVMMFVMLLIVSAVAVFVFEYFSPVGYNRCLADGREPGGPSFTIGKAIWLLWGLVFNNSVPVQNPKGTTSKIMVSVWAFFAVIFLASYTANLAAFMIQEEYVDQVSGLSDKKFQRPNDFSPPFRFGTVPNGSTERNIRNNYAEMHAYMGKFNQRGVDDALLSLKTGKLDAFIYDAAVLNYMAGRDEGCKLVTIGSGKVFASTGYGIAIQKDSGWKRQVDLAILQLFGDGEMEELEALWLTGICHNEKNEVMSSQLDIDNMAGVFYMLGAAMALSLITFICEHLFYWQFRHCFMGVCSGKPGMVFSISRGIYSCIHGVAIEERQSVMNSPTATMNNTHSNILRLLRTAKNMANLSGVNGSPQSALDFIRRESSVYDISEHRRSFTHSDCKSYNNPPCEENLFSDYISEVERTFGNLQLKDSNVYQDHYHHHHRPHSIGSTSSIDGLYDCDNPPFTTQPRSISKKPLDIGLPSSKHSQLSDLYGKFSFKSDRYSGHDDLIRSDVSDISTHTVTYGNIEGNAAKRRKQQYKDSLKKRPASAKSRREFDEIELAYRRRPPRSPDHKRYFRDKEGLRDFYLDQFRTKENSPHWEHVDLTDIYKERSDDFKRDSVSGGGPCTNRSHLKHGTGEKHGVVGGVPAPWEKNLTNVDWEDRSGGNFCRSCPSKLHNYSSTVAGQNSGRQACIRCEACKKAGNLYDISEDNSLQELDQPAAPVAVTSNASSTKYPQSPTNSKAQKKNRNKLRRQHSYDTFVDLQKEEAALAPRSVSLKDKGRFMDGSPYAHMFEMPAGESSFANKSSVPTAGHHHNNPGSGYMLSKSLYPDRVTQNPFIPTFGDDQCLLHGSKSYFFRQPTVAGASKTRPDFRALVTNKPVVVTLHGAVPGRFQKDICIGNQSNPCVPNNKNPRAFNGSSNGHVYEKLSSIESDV

SMILES | IC50 [nM]
CC(CN1CCC(Cc2ccccc2)CC1)C(O)c1ccc(O)cc1 (stereo not drawn) [Ro 25.6981, R-(R*,S*)-1-(4-hydroxyphenyl)-2-methyl-3-[4-(phenylmethyl)piperidin-1-yl]-1-propanol, reference compound] | 159

same assay, conditions: rat cortical cells, 40 μM NMDA, fluorimetric method; read-out: Cortical cells IC50

IC50 [nM] | SMILES
23 | Cc1ccc(CC2(O)CCN(CCOc3ccc(O)cc3)CC2)cc1 [Co-101244, 1-[2-(4-hydroxyphenoxy)ethyl]-4-hydroxy-4-(4-methylbenzyl)piperidine, reference compound]
75 | CCOc1ccccc1CNC(=N)c1cc2ccccc2[nH]1 [Compound 19]
277 | N=C(NCc1ccccc1Br)c1cc2ccccc2[nH]1 [Compound 25]
418 | N=C(NCc1cccc(Br)c1)c1cc2ccccc2[nH]1 [Compound 26]
232 | N=C(NCc1ccccc1F)c1cc2ccccc2[nH]1 [Compound 29]
224 | N=C(NCc1cc(F)ccc1F)c1cc2ccccc2[nH]1 [Compound 30]
143 | N=C(NCc1c(F)cccc1F)c1cc2ccccc2[nH]1 [Compound 31]
170 | Cc1ccccc1C/N=C(\N)c1cc2ccccc2[nH]1 [Compound 32]
341 | COc1ccc(OC)c(CNC(=N)c2cc3ccccc3[nH]2)c1 [Compound 35]
5.4 | COc1cccc(OC)c1CNC(=N)c1cc2ccccc2[nH]1 [Compound 36]
159 | N=C(NCc1cc(Cl)cc(Cl)c1)c1cc2ccccc2[nH]1 [Compound 38]
211 | COc1cccc(CNC(=N)c2cc3cc(F)ccc3[nH]2)c1 [Compound 57]
51 | CCOc1ccccc1CNC(=N)c1cc2cc(F)ccc2[nH]1 [Compound 59]
359 | N=C(NCc1cc(F)ccc1F)c1cc2cc(F)ccc2[nH]1 [Compound 67]
160 | Cc1ccccc1CNC(=N)c1cc2cc(F)ccc2[nH]1 [Compound 68]
594 | N=C(NCc1cc(F)cc(F)c1)c1cc2cc(F)ccc2[nH]1 [Compound 70]
453 | COc1ccc(OC)c(CNC(=N)c2cc3cc(F)ccc3[nH]2)c1 [Compound 71]
17 | COc1cccc(OC)c1C/N=C(\N)c1cc2cc(F)ccc2[nH]1 [Compound 72]
209 | N=C(NCc1cc(Cl)cc(Cl)c1)c1cc2cc(F)ccc2[nH]1 [Compound 73]
432 | N=C(NCc1cccc(F)c1)c1cc2cc(Cl)ccc2[nH]1 [Compound 81]
369 | COc1ccc(CNC(=N)c2cc3cc(Cl)ccc3[nH]2)c(OC)c1 [Compound 83]
422 | N=C(NCc1ccccc1Cl)c1cc2cc(Cl)ccc2[nH]1 [Compound 87]
319 | COc1cccc(CNC(=N)c2cc3cc(Cl)ccc3[nH]2)c1 [Compound 92]
213 | CCOc1ccccc1CNC(=N)c1cc2cc(Cl)ccc2[nH]1 [Compound 94]

IC50 [nM] | SMILES
125 | N=C(NCc1cccnc1)c1cc2cc(Cl)ccc2[nH]1 [Compound 97]
257 | N=C(NCc1cccc(Br)c1)c1cc2cc(Cl)ccc2[nH]1 [Compound 103]
198 | N=C(NCc1ccccc1OC(F)(F)F)c1cc2cc(Cl)ccc2[nH]1 [Compound 106]
493 | N=C(NCc1ccccc1F)c1cc2cc(Cl)ccc2[nH]1 [Compound 107]
742 | N=C(NCc1c(F)cccc1F)c1cc2cc(Cl)ccc2[nH]1 [Compound 108]
218 | Cc1ccccc1CNC(=N)c1cc2cc(Cl)ccc2[nH]1 [Compound 109]
702 | N=C(NCc1cc(F)cc(F)c1)c1cc2cc(Cl)ccc2[nH]1 [Compound 110]
417 | COc1ccc(OC)c(CNC(=N)c2cc3cc(Cl)ccc3[nH]2)c1 [Compound 111]
69 | COc1cccc(OC)c1C/N=C(\N)c1cc2cc(Cl)ccc2[nH]1 [Compound 112]
224 | COc1ccc2[nH]c(C(=N)NCc3ccccc3)cc2c1 [Compound 118]
401 | COc1ccc2[nH]c(C(=N)NCc3ccccc3C(F)(F)F)cc2c1 [Compound 119]
129 | COc1ccc(CNC(=N)c2cc3cc(OC)ccc3[nH]2)c(OC)c1 [Compound 123]
519 | COc1ccc2[nH]c(C(=N)NCc3ccc(OC)c(OC)c3)cc2c1 [Compound 126]
373 | COc1ccc2[nH]c(C(=N)NCc3cccc(Cl)c3)cc2c1 [Compound 127]
220 | COc1ccc2[nH]c(C(=N)NCc3cccc(C)c3)cc2c1 [Compound 128]
52 | COc1cccc(CNC(=N)c2cc3cc(OC)ccc3[nH]2)c1 [Compound 129]
57 | CCOc1ccccc1CNC(=N)c1cc2cc(OC)ccc2[nH]1 [Compound 131]
232 | COc1ccc2[nH]c(C(=N)NCc3ccccc3Br)cc2c1 [Compound 138]
397 | COc1ccc2[nH]c(C(=N)NCc3cccc(Br)c3)cc2c1 [Compound 139]
202 | COc1ccc2[nH]c(C(=N)NCc3cc(F)ccc3F)cc2c1 [Compound 142]
158 | COc1ccc2[nH]c(C(=N)NCc3c(F)cccc3F)cc2c1 [Compound 143]
318 | COc1ccc2[nH]c(C(=N)NCc3cc(F)cc(F)c3)cc2c1 [Compound 145]
287 | COc1ccc(OC)c(CNC(=N)c2cc3cc(OC)ccc3[nH]2)c1 [Compound 146]
26 | COc1ccc2[nH]c(C(=N)NCc3c(OC)cccc3OC)cc2c1 [Compound 147]

SMILES | IC50 [nM]
O=c1[nH]c2ccc([S+]([O-])CCN3CCC(Cc4ccc(F)cc4)CC3)cc2o1 (stereo not shown) [CI-1041, 6-{2-[4-(4-fluoro-benzyl)-piperidin-1-yl]-ethanesulfinyl}-3H-benzooxazol-2-one, reference compound] | 6.6
COc1ccc2[nH]c(C(=N)NCc3cccnc3)cc2c1 [Compound 134] | 100
O=C(CCN1CCC(Cc2ccc(F)cc2)CC1)c1ccc2[nH]c(=O)oc2c1 [EMD 95885, reference compound] | 35

molecular target: T2, recombinant NMDA receptors NR1(−3)/NR2A (Homo sapiens, UniProt Q05586+Q12879); test: Inhibition of NMDA evoked cytosolic calcium elevation in HEK 293 cells expressing recombinant NR1-3/NR2A; format: cell-based; settings: 10 μM, NR1-3/NR2A subunit expressing cells
T2 construct: expressed in transfected cells
Description: (2003)]. […] Compounds were tested for their inhibitory action on NMDA evoked cytosolic calcium elevations in fluorescent calcium measurements. Studies were performed 48-72 h after addition of the inducing agent. Ketamine (500 μM) was also present during the induction in order to prevent cytotoxicity.
as §1

T2 sequence (Q12879 23-1464, other chains not shown): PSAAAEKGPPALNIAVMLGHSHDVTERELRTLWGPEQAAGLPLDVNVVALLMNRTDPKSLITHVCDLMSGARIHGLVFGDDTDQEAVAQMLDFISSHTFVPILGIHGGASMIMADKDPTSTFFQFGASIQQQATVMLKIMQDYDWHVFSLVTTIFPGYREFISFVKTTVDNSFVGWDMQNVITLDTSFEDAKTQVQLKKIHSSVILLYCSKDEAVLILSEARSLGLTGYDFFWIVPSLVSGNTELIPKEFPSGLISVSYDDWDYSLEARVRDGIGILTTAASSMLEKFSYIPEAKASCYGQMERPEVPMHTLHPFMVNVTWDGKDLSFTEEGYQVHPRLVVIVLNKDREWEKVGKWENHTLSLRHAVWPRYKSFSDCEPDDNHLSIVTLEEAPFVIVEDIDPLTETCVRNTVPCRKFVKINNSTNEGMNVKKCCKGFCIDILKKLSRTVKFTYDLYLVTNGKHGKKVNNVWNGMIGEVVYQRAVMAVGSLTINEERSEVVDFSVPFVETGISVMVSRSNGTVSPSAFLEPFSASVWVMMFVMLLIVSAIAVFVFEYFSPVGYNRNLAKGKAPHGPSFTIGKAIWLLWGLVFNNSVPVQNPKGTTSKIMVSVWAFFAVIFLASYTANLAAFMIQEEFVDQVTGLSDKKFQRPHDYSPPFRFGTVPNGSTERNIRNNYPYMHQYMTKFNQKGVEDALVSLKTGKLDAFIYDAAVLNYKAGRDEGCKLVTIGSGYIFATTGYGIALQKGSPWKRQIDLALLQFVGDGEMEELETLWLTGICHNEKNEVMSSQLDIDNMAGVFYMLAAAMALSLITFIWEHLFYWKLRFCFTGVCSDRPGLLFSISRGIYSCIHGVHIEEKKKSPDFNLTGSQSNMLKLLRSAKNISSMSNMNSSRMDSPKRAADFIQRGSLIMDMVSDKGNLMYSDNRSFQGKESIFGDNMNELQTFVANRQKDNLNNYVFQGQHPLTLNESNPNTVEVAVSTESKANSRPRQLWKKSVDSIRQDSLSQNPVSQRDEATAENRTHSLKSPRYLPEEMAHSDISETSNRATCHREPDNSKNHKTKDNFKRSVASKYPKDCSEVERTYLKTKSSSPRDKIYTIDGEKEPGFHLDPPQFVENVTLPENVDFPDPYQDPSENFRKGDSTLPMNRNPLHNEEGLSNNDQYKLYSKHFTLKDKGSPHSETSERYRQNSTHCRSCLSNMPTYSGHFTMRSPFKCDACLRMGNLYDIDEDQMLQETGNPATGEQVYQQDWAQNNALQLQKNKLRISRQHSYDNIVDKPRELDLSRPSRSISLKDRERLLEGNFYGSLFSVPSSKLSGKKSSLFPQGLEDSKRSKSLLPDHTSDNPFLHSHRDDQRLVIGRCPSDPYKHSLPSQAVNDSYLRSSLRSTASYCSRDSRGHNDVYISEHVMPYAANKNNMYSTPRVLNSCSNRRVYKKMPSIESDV

SMILES | NR1-3/NR2A % inhibition at 10 μM [%]
O=C(CCN1CCC(Cc2ccc(F)cc2)CC1)c1ccc2[nH]c(=O)oc2c1 [EMD 95885, reference compound] | 0.1

same assay, conditions: HEK293; 10 μM, NR1-3/NR2A subunit expressing cells

SMILES | inhibition at 10 µM [%]
C[C@@H]([C@@H](O)c1ccc(O)cc1)N1CCC(O)(c2ccccc2)CC1 [CP 101,606, (1S,2S)-1-(4-hydroxyphenyl)-2-(4-hydroxy-4-phenylpiperidine-1-yl)-1-propanol] | 2.5
CC(C(O)c1ccc(O)cc1)N1CCC(Cc2ccccc2)CC1 (stereo not drawn) [Erythro-ifenprodil, erythro-2-(4-benzylpiperidino)-1-(4-hydroxyphenyl)-1-propanol] | -2.7
CC(CN1CCC(Cc2ccccc2)CC1)C(O)c1ccc(O)cc1 (stereo not drawn) [Ro 25.6981, R-(R*,S*)-1-(4-hydroxyphenyl)-2-methyl-3-[4-(phenylmethyl)piperidin-1-yl]-1-propanol, reference compound] | 1

same assay, conditions: HEK293; 15 μM, NR1-3/NR2A subunit expressing cells

inhibition at 15 µM [%] | SMILES
32.1 | COc1cccc(OC)c1CNC(=N)c1cc2ccccc2[nH]1 [Compound 36]
21.7 | COc1ccc2[nH]c(C(=N)NCc3c(OC)cccc3OC)cc2c1 [Compound 147]

SMILES | inhibition at 15 µM [%]
COc1ccc2[nH]c(C(=N)NCc3cccnc3)cc2c1 [Compound 134] | 6.1

test system: not given; test: not given; settings: cited from earlier work

SMILES | effect on neuropathic pain in clinical trial
C[C@@H]([C@@H](O)c1ccc(O)cc1)N1CCC(O)(c2ccccc2)CC1 [CP 101,606, (1S,2S)-1-(4-hydroxyphenyl)-2-(4-hydroxy-4-phenylpiperidine-1-yl)-1-propanol] | reduced neuropathic pain

same assay, conditions: no psychotomimetic effects, hallucinations, dysphoria; cited from earlier work

SMILES | tolerability in clinical trial
C[C@@H]([C@@H](O)c1ccc(O)cc1)N1CCC(O)(c2ccccc2)CC1 [CP 101,606, (1S,2S)-1-(4-hydroxyphenyl)-2-(4-hydroxy-4-phenylpiperidine-1-yl)-1-propanol] | well tolerated
